Laboratory results published in PubChem BioAssay AID248 (DTP/NCI, 2004).
Inconclusive results and toxic doses are left out. Rule as the data show it: active = T/C of 150% or more; inactive = T/C below 125%.

Test system: L1210 leukemia ip in BDF1 mice, survival T/C
Assay: NCI In Vivo Anticancer Drug Screen. Data for tumor model L1210 Leukemia (intraperitoneal) in B6D2F1 (BDF1) mice
Settings: endpoint: mean survival time, higher = longer survival
Summary of the method: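 Mice bearing the transplanted tumor received compound or vehicle. Survival of the treated group was divided by that of the vehicle-treated control group to give the ratio.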

[1] = dose: 100.0 mg/kg/injection, schedule: Q04DX003 (ip), vehicle: Klucel (hydroxypropylcellulose) (HPC)
[2] = dose: 200.0 mg/kg/injection, schedule: Q04DX003 (ip), vehicle: Klucel (hydroxypropylcellulose) (HPC)
[3] = dose: 400.0 mg/kg/injection, schedule: Q04DX003 (ip), vehicle: Klucel (hydroxypropylcellulose) (HPC)
[4] = dose: 100.0 mg/kg/injection, schedule: Q04DX002 (ip), vehicle: saline with Tween-80
[5] = dose: 200.0 mg/kg/injection, schedule: Q04DX002 (ip), vehicle: saline with Tween-80
[6] = dose: 100.0 mg/kg/injection, schedule: Q01DX001 (ip), vehicle: Klucel (hydroxypropylcellulose) (HPC)
[7] = dose: 200.0 mg/kg/injection, schedule: Q01DX001 (ip), vehicle: Klucel (hydroxypropylcellulose) (HPC)
[8] = dose: 400.0 mg/kg/injection, schedule: Q01DX001 (ip), vehicle: Klucel (hydroxypropylcellulose) (HPC)
[9] = dose: 25.0 mg/kg/injection, schedule: Q04DX003 (ip), vehicle: saline
[10] = dose: 100.0 mg/kg/injection, schedule: Q01DX009 (ip), vehicle: saline
[11] = dose: 100.0 mg/kg/injection, schedule: Q01DX001 (ip), vehicle: saline
[12] = dose: 200.0 mg/kg/injection, schedule: Q01DX001 (ip), vehicle: saline
[13] = dose: 400.0 mg/kg/injection, schedule: Q01DX001 (ip), vehicle: saline
[14] = dose: 100.0 mg/kg/injection, schedule: Q04DX003 (ip), vehicle: saline
[15] = dose: 200.0 mg/kg/injection, schedule: Q01DX009 (ip), vehicle: saline
[16] = dose: 400.0 mg/kg/injection, schedule: Q01DX009 (ip), vehicle: saline
[17] = dose: 50.0 mg/kg/injection, schedule: Q04DX003 (ip), vehicle: saline
[18] = dose: 100.0 mg/kg/injection, schedule: Q01DX009 (ip), vehicle: Klucel (hydroxypropylcellulose) (HPC)
[19] = dose: 200.0 mg/kg/injection, schedule: Q01DX009 (ip), vehicle: Klucel (hydroxypropylcellulose) (HPC)

Measured: T/C

O=C(c1ccc([N+](=O)[O-])cc1)c1ccc(O)cc1O
inactive: dose: 100.0 mg/kg/injection, schedule: Q01DX001 (ip), vehicle: other 101 % of control | dose: 100.0 mg/kg/injection, schedule: Q04DX003 (ip), vehicle: other 100 % of control | dose: 200.0 mg/kg/injection, schedule: Q01DX001 (ip), vehicle: other 101 % of control | dose: 200.0 mg/kg/injection, schedule: Q04DX003 (ip), vehicle: other 101 % of control | dose: 400.0 mg/kg/injection, schedule: Q01DX001 (ip), vehicle: other 103 % of control | dose: 400.0 mg/kg/injection, schedule: Q04DX003 (ip), vehicle: other 97 % of control

CN(C)c1ccc(CC2Cc3ccccc3C2=O)cc1 (stereo unspecified)
inactive: dose: 100.0 mg/kg/injection, schedule: Q01DX009 (ip), vehicle: other 96 % of control | [1] 117 % of control | dose: 200.0 mg/kg/injection, schedule: Q01DX009 (ip), vehicle: other 89 % of control | [2] 103 % of control | dose: 400.0 mg/kg/injection, schedule: Q01DX009 (ip), vehicle: other 91 % of control | [3] 98 % of control

CCNC(=S)NC1CCCCCCCCCCC1
inactive: [4] 94 % of control | [5] 87 % of control

COc1cccc(/C=N/NC(=O)CNC(=O)Nc2cccc([N+](=O)[O-])c2)c1OC
inactive: dose: 50.0 mg/kg/injection, schedule: Q01DX009 (ip), vehicle: saline with Tween-80 89 % of control | dose: 100.0 mg/kg/injection, schedule: Q01DX009 (ip), vehicle: saline with Tween-80 96 % of control | dose: 200.0 mg/kg/injection, schedule: Q01DX009 (ip), vehicle: saline with Tween-80 89 % of control

CCOC(=O)/C(=N\O)C(C)(C)c1ccnc2ccccc12
inactive: dose: 100.0 mg/kg/injection, schedule: Q04DX003 (ip), vehicle: saline with Tween-80 86 % of control | dose: 200.0 mg/kg/injection, schedule: Q04DX003 (ip), vehicle: saline with Tween-80 88 % of control | dose: 400.0 mg/kg/injection, schedule: Q04DX003 (ip), vehicle: saline with Tween-80 95 % of control

[O-][n+]1c2ccccc2nc2ccccc21
inactive: [1] 98 % of control | [2] 98 % of control | [3] 89 % of control

CCCCCCCCCCCCCCCCCC(=O)CCCCCCCCCCCCCCCCC
inactive: [6] 88 % of control | [7] 96 % of control | [8] 91 % of control

O=C1O/C(=C/Br)C=C1Br
inactive: dose: 3.12 mg/kg/injection, schedule: Q04DX003 (ip), vehicle: saline with Tween-80 95 % of control | dose: 6.25 mg/kg/injection, schedule: Q04DX003 (ip), vehicle: saline with Tween-80 92 % of control | dose: 12.5 mg/kg/injection, schedule: Q04DX003 (ip), vehicle: saline with Tween-80 92 % of control | dose: 12.5 mg/kg/injection, schedule: Q04DX003 (ip), vehicle: saline 100 % of control | [9] 97 % of control

CCC(C)C(CCN1CCCC1)(CNC(=O)CN(CC)CC)c1cccc2ccccc12 (stereo unspecified)
inactive: [10] 95 % of control

CN(C)C(SCc1c(Cl)c(Cl)c(Cl)c(Cl)c1Cl)=[N+](C)C
inactive: dose: 3.0 mg/kg/injection, schedule: Q04DX002 (ip), vehicle: saline 101 % of control | dose: 6.0 mg/kg/injection, schedule: Q04DX002 (ip), vehicle: saline 93 % of control | dose: 12.0 mg/kg/injection, schedule: Q04DX002 (ip), vehicle: saline 104 % of control

CC(=O)C(C)CCOC1(C)OCCC1C (stereo unspecified)
inactive: dose: 50.0 mg/kg/injection, schedule: Q01DX001 (ip), vehicle: saline 103 % of control | [11] 116 % of control | [12] 100 % of control | [13] 103 % of control

Cc1cc(C)c(B(O)O)c(C)c1
inactive: [10] 100 % of control | [14] 105 % of control | [15] 96 % of control | dose: 200.0 mg/kg/injection, schedule: Q04DX003 (ip), vehicle: saline 100 % of control | [16] 103 % of control | dose: 400.0 mg/kg/injection, schedule: Q04DX003 (ip), vehicle: saline 102 % of control

COc1cc(N2CCOCC2)ccc1N
inactive: dose: 25.0 mg/kg/injection, schedule: Q01DX009 (ip), vehicle: saline 89 % of control | [9] 100 % of control | dose: 50.0 mg/kg/injection, schedule: Q01DX009 (ip), vehicle: saline 95 % of control | [17] 101 % of control | [14] 103 % of control

O=c1[nH]c2ccccc2n1C1OC(CO)C(O)C1O (stereo unspecified)
inactive: [11] 98 % of control | [12] 93 % of control | [13] 100 % of control

O=C(NC/C(Br)=C/Br)Oc1cccc2c1CCCC2
inactive: dose: 100.0 mg/kg/injection, schedule: Q04DX002 (ip), vehicle: other 94 % of control | dose: 200.0 mg/kg/injection, schedule: Q04DX002 (ip), vehicle: other 94 % of control | dose: 400.0 mg/kg/injection, schedule: Q04DX002 (ip), vehicle: other 91 % of control

CCN(CC)CC(O)Cn1cnc2cncnc21 (stereo unspecified)
inactive: [9] 98 % of control | [17] 107 % of control | [14] 98 % of control

CC(=O)c1cc2c(cc1C)OCO2
inactive: [11] 103 % of control | [12] 97 % of control | [13] 101 % of control

C1=CCC2OC2C1 (stereo unspecified)
inactive: dose: 100.0 mg/kg/injection, schedule: Q01DX001 (ip), vehicle: acetone 103 % of control | [18] 105 % of control | dose: 200.0 mg/kg/injection, schedule: Q01DX001 (ip), vehicle: acetone 95 % of control | [19] 103 % of control | dose: 400.0 mg/kg/injection, schedule: Q01DX001 (ip), vehicle: acetone 94 % of control

CCCCC(CC)C1OCCS1 (stereo unspecified)
inactive: [10] 96 % of control | dose: 100.0 mg/kg/injection, schedule: Q04DX002 (ip), vehicle: saline 96 % of control | [15] 107 % of control | dose: 200.0 mg/kg/injection, schedule: Q04DX002 (ip), vehicle: saline 92 % of control | [16] 104 % of control | dose: 400.0 mg/kg/injection, schedule: Q04DX002 (ip), vehicle: saline 99 % of control

Clc1ccccc1C=NC1CCCCC1
inactive: [4] 96 % of control | [5] 96 % of control | dose: 400.0 mg/kg/injection, schedule: Q04DX002 (ip), vehicle: saline with Tween-80 93 % of control

COc1c(NC(=O)c2ccc(C(=O)Nc3cccc([N+](=O)[O-])c3OC)cc2)cccc1[N+](=O)[O-]
inactive: [18] 97 % of control | [19] 100 % of control | dose: 400.0 mg/kg/injection, schedule: Q01DX009 (ip), vehicle: Klucel (hydroxypropylcellulose) (HPC) 97 % of control

CCC(CC)NCC(C)(C)O
inactive: dose: 75.0 mg/kg/injection, schedule: Q01DX001 (ip), vehicle: acid diluted with saline 115 % of control | dose: 150.0 mg/kg/injection, schedule: Q01DX001 (ip), vehicle: acid diluted with saline 110 % of control

CCCCCCCC(=O)N1CC(C)OC(C)C1 (stereo unspecified)
inactive: dose: 100.0 mg/kg/injection, schedule: Q04DX002 (ip), vehicle: Klucel (hydroxypropylcellulose) (HPC) 100 % of control | dose: 200.0 mg/kg/injection, schedule: Q04DX002 (ip), vehicle: Klucel (hydroxypropylcellulose) (HPC) 114 % of control | dose: 400.0 mg/kg/injection, schedule: Q04DX002 (ip), vehicle: Klucel (hydroxypropylcellulose) (HPC) 107 % of control

O=C1N(Cc2ccccc2)C(=O)C(Cc2ccccc2)(Cc2ccccc2)C(=O)N1Cc1ccccc1
inactive: dose: 100.0 mg/kg/injection, schedule: Q01DX001 (ip), vehicle: carboxymethylcellulose (CMC) 101 % of control | dose: 200.0 mg/kg/injection, schedule: Q01DX001 (ip), vehicle: carboxymethylcellulose (CMC) 97 % of control | dose: 400.0 mg/kg/injection, schedule: Q01DX001 (ip), vehicle: carboxymethylcellulose (CMC) 95 % of control

CCCC1COCC(CC)/C1=N\Nc1ccc([N+](=O)[O-])cc1[N+](=O)[O-] (stereo unspecified)
inactive: [6] 91 % of control | [7] 94 % of control | [8] 91 % of control

Cc1ccccc1SSc1ccccc1C
inactive: [1] 94 % of control | [2] 97 % of control | [3] 91 % of control

Cc1cc(O)c(C(C)C)cc1NC(=O)C(Cl)Cl
inactive: [1] 98 % of control | [2] 101 % of control | [3] 107 % of control
